Experimental data taken from patent publication US10954200B1, “Anti-angiogenesis compound” (KING SAUD UNIVERSITY, priority 2019, dated 2021).

Assays:
MCF-7 cells [1] = experiment: Colony formation assay; format: cell-based, human; details: 5, 10, 20 μM, 6 hours pretreatment, 12 days
Protocol: Long-term effects of the active compound were determined by colony formation with minor modifications. […] Surviving colonies were fixed and stained by using 0.5% crystal violet. Visible colonies were observed and colonies were counted and photographed.

PBMC cells [2] = experiment: MTT cell viability assay, PBMC; format: cell-based, human; details: 48 h, read-out: IC50 value (μM) against PBMC cells, MTT assay
Protocol: (§1) Breast cancer cells (MCF-7), lung cancer cells (A549), Hela cells, and peripheral blood mononuclear cells (PBMC) were purchased from the National Center for Cell Sciences (NCCS), Pune, India. The cancer cells were maintained in Dulbecco's modified eagles medium (DMEM), supplemented with 2 mM 1-glutamine and balanced salt solution (BSS), adjusted to contain 1.5 g/L Na2CO3, 0.1 mM nonessential amino acids, 1 mM sodium pyruvate, 2 mM 1-glutamine, 1.5 g/L glucose, 10 mM (4-(2-hydroxyethyl)-1-piperazineethane sulfonic acid) (HEPES), and 10% fetal bovine serum (GIBCO, USA). Penicillin and streptomycin (100 IU/100 μg) were adjusted to 1 mL/L. The cells were maintained at 37° C. with 5% CO2 in a humidified CO2 incubator.
(§2) The inhibitory concentration (IC50) value was evaluated using an MTT [3-(4,5-dimethylthiazol-2-yl)-2,5-diphenyltetrazolium bromide] assay. Cancer cells were grown (1×10^4 cells/well) in a 96-well plate for 48 h to 75% confluence. The medium was replaced with fresh medium containing serially diluted synthesized compounds, and the cells were further incubated for 48 h. The culture medium was removed, and 100 μL of the MTT [3-(4,5-dimethylthiozol-2-yl)-3,5-diphenyl tetrazolium bromide] (Hi-Media, Mumbai, India) solution was added to each well and incubated at 37° C. for 4 h. […] The optical density was measured at 620 nm in an ELISA multiwell plate reader (Thermo Multiskan EX, USA). […]

A549 cells [3] = experiment: Trypan blue dye exclusion assay, A549; format: cell-based; details: Homo sapiens, A549, 48 h; read-out: IC50 value (μM) against A549 cells, Trypan blue assay
Protocol: as §1
(§3) The cytotoxic effects of synthesized compounds on various types of cancer cells were determined by trypan blue dye exclusion assay. The cultured cells were treated with the synthesized compounds and incubated for 48 h. After the incubation period, the cells were detached by 0.5% trypan-EDTA solution, harvested by centrifugation at 3000 rpm for 5 minutes and diluted in 1 ml of PBS. […] About 20 μl of cell suspensions were carefully and continuously filled in the haemocytometer chamber and viable cells were counted in 1×1 mm squares, four chambers and the average number of cells per square determined. Total viable cells were determined using the following formula, […]

NIH-3T3 cells = experiment: Toxicity to NIH-3T3 cells; format: cell-based
[4] = tested on: genomic DNA of cancer cells; experiment: DNA fragmentation assay (apoptotic ladder); format: cell-based; details: treated vs untreated cells
Protocol: DNA damaging studies were carried out according to previously described methods. The DNA damaging activity of the compound on genomic DNA of both control and treated cells were evaluated by Phenol:Chloroform method. Briefly, the cells were first lysed using lysis buffer (50 mM Tris-Hcl, 0.5% SDS, pH 8.0) and incubated for 30 minutes at […]. The cell lysate was precipitated by using potassium acetate (8M) and incubated at 4° C. for 1 hr. The supernatant was mixed with phenol:Chloroform:isoamylalcohol at 25:24:1 ratio. This step was repeated thrice. DNA was precipitated by adding ice cold alcohol and precipitated DNA was air dried and dissolved by using appropriate amounts of TE Buffer (pH 8.0). Precipitated DNA was subjected to RNase digestion (2 μg/mL) for 1 hr at 37° C. The obtained DNA was quantified by using nanodrop (Eppendrof Ag 22331 Hamburg 6135EM402331) and equal amounts of (50 μg) of DNA were loaded to 1% agarose gel, observed under uv-trans illuminator, and documented.

A549 cells [5] = experiment: MTT cell viability assay, A549; format: cell-based; details: Homo sapiens, A549, 48 h; read-out: IC50 value (μM) against A549 cells, MTT assay
Protocol: as §1, §2

caspase-3 = experiment: Caspase-3 colorimetric assay; format: cell-based, human
Protocol: Using CPP32/Caspase-3 Colorimetric Assay Kit, the activated caspase was estimated as per manufacturer's protocol. The buffers used in the experiment were those supplied along with the kit. A549 cells (8×10^5 per 12.5 cm^2 culture flasks) were seeded with their respective growth medium and incubated for 24 h at 37° C. with/without 5% CO2. Then, confluent cells were added with the respective drug medium while maintaining an untreated group as a control. Cultures were incubated for 6 h, maintaining the same conditions, 0.1 mM Hydrogen Peroxide (H2O2) and 10 μM standard drug were used as positive control for activation of caspase-3. After treatment incubation, the detached cells in the supernatant were collected, and the adherent cells were trypsinized to add into the respective tubes. Subsequently, tubes were centrifuged at 1500 rpm for 10 min to acquire a cell pellet. […] The […] was transferred to fresh tubes and the protein concentrations of samples were determined by employing Bradford assay. […] Post-incubation, the plate was read at 405 nm in a Dynex Opsys MRTM Microplate Reader (Dynex Technologies, VA, USA). Percentage caspase-3 activation was calculated using the following formula: % Caspase-3 activation=[(At−Ac)/Ac]×100
“At” represents the mean absorbance of test wells and “Ac” represents the mean absorbance of the control wells.

Hela cells [6] = experiment: MTT cell viability assay, Hela; format: cell-based; details: Homo sapiens, 48 h, read-out: IC50 value (μM) against Hela cells, MTT assay
Protocol: as §1, §2

PBMC cells [7] = experiment: Trypan blue dye exclusion assay, PBMC; format: cell-based, human; details: 48 h, read-out: IC50 value (μM) against PBMC cells, Trypan blue assay
Protocol: as §1, §3

EAC cells [8] = experiment: MTT cell viability assay, EAC; format: cell-based, mouse; details: 48 h, read-out: IC50 value (μM) against EAC cells, MTT assay
Protocol: (§4) The inhibitory concentration (IC50) value was evaluated using an MTT [3-(4,5-dimethylthiazol-2-yl)-2,5-diphenyltetrazolium bromide] assay. Cancer cells were grown (1×10^4 cells/well) in a 96-well plate for 48 h to 75% confluence. The medium was replaced with fresh medium containing serially diluted synthesized compounds, and the cells were further incubated for 48 h. The culture medium was removed, and 100 μL of the MTT [3-(4,5-dimethylthiozol-2-yl)-3,5-diphenyl tetrazolium bromide] (Hi-Media, Mumbai, India) solution was added to each well and incubated at 37° C. for 4 h. After removal of the supernatant, 50 μL of DMSO was added to each of the wells and incubated for 10 min to solubilize the formazan crystals. The optical density was measured at 620 nm in an ELISA multiwell plate reader (Thermo Multiskan EX, USA). The OD value was used to calculate the percentage of viability using the following formula.

cancer cells = experiment: MTT and trypan blue assays, overall IC50; format: cell-based; details: read-out: anti-angiogenesis effect, IC50 values
Protocol: as §4
The cytotoxic effects of synthesized compounds on various types of cancer cells were determined by trypan blue dye exclusion assay. […] About 20 μl of cell suspensions were carefully and continuously filled in the haemocytometer chamber and viable cells were counted in 1×1 mm squares, four chambers and the average number of cells per square determined. Total viable cells were determined using the following formula, […]

Hela cells [9] = experiment: Trypan blue dye exclusion assay, Hela; format: cell-based; details: Homo sapiens, 48 h, read-out: IC50 value (μM) against Hela cells, Trypan blue assay
Protocol: as §1, §3

[10] = tested on: EAC induced angiogenesis in peritoneum; experiment: Peritoneal angiogenesis assay; format: in vivo, Swiss albino mice
Protocol: (§5) The effect of potent synthesized compound BAMC on the modulation of neovessel and tumor growth was verified in EAC bearing animals. The EAC tumor bearing mice were grouped separately at two different concentrations (25 and 50 mg/Kg, b.w/i.p) of potent synthesized compounds and individually the groups were treated using a 26 gauge needle. Then, after the onset of tumor on the 4th day, three doses were given on every alternative day. The growth of the tumor was monitored by taking the body weight of the animals every day. Then, control animals were injected with 0.2 ml of saline (i.p) on every alternative day. In each treatment, at least six mice were taken and each experiment was repeated thrice. After the completion of treatment, the animals from each group were sacrificed on the 10th day and the EAC cells along with ascites fluid were harvested and the quantity was recorded. The peritoneum of the mice was cut open and the inner lining of the peritoneal cavity was examined for angiogenesis (vasculature) in compound-treated, tumor bearing mice. Finally, the inner lining of normal mice was also examined for vasculature and photographed using Sony steady shot DSC-W610 camera. These sets of animals were used to study the survivability analysis after treatment until their death.

EAC cells [11] = experiment: Trypan blue dye exclusion assay, EAC; format: cell-based, mouse; details: 48 h, read-out: IC50 value (μM) against EAC cells, Trypan blue assay
Protocol: The cytotoxic effects of synthesized compounds on various types of cancer cells were determined by trypan blue dye exclusion assay. The cultured cells were treated with the synthesized compounds and incubated for 48 h. After the incubation period, the cells were detached by 0.5% trypan-EDTA solution, harvested by centrifugation at 3000 rpm for 5 minutes and diluted in 1 ml of PBS. Then, 10 μl of trypan blue dye solution was added to each sample and cells were re-suspended. About 20 μl of cell suspensions were carefully and continuously filled in the haemocytometer chamber and viable cells were counted in 1×1 mm squares, four chambers and the average number of cells per square determined. Total viable cells were determined using the following formula,
The values were plotted in MS excel version 8.1, graphed and the inhibitory concentration-50 (IC50) values were estimated.

A549 cells [12] = experiment: Cancer cell migration (scratch wound) assay; format: cell-based; details: Homo sapiens, 48 h
Protocol: The A549 cells were cultured in a six well plate until they reached a confluence of 60-70%. A scratch was made to form a wound using a micropipette tip and the monolayer was washed with growth medium. Then, 2 ml medium containing different concentrations of test drugs was added to the respective wells, incubated for 48 h, fixed with chilled 70% ethanol and stained with crystal violet (0.4 g/l). Images were taken from random fields at regular time intervals using an inverted microscope (Bresser, Biolux). Finally, the percentage of cell migration was calculated by comparing the final gap width to initial gap width.

MCF-7 cells [13] = experiment: MTT cell viability assay, MCF-7; format: cell-based; details: Homo sapiens, MCF7; MCF-7, 48 h; read-out: IC50 value (μM) against MCF-7 cells, MTT assay
Protocol: as §1, §2

MCF-7 cells [14] = experiment: Trypan blue dye exclusion assay, MCF-7; format: cell-based; details: Homo sapiens, MCF7; MCF-7, 48 h; read-out: IC50 value (μM) against MCF-7 cells, Trypan blue assay
Protocol: as §1, §3

EAC tumor = experiment: In vivo EAC ascites tumor growth; details: for decrease of tumor volume, % of inhibition: three doses on alternate days
Protocol: The EAC tumor was obtained from Mahajana Education Center, BOC, in Biotechnology. Microbiology& Biochemistry Mahajana College, Mysore University, Mysore, Karnataka, India, and the same was induced into adult Swiss albino mice i.p and left for the growth.
The EAC tumor bearing mice (donor) were taken on the 12th day after tumor transplantation and the ascites fluid was drawn using an 18 gauge needle into a sterile syringe. Then the tumor cell viability was tested by trypan blue exclusion assay and the cells were counted using a haemocytometer. The ascites fluid was suitably diluted to get a concentration of 5×10^6/0.2 ml of tumor cell suspension. This was injected into the i.p cavity of Swiss mice to obtain ascites tumor and the process was repeated every 12 days.
Ascites tumor was obtained by injecting 5×10^6 viable tumor cells into i.p cavity of Swiss mice. Tumor growth was followed by recording the animal weights. These cells grew in the peritoneum of mice, forming an ascites tumor with enormous abdominal swelling and showing a profound increase in body weight. The EAC cells began their exponential growth phase from the 7th day after tumor cell injection and the animals succumbed to the ascites tumor burden between 16 to 20 days after injection of tumor cells.
as §5

Cc1ccccc1OCC(=O)NNC(=O)C1CN(Cc2ccccc2)CCO1 (centres unmarked) [BAMC, 4-Benzyl-N′-(2-(o-tolyloxy)acetyl) morpholine-2-carbohydrazide]
colony formation (colonogenic efficiency) (MCF-7 cells [1]): visibly diminished the colonogenic efficiency of MCF-7 cells | IC50 (PBMC cells [2]; Homo sapiens): 89.9 ± 3.5 µM | IC50 (A549 cells [3]): 5.8 ± 0.7 µM | toxicity to NIH-3T3 cells (NIH-3T3 cells): ~97 µM | DNA fragmentation (apoptotic ladder), agarose gel [4]: typical “ladder (A)” formation of DNA | IC50 (A549 cells [5]): 5.6 ± 1 µM | percentage of caspase-3 activation (caspase-3; MCF-7, BAMC concentration not stated): 84.5% | IC50 (Hela cells [6]): 4.9 ± 0.2 µM | IC50 (PBMC cells [7]; Homo sapiens): 85.7 ± 0.7 µM | IC50 (EAC cells [8]; Mus musculus): 6.7 ± 1.8 µM | IC50 (cancer cells): ~5.5 µM | IC50 (Hela cells [9]): 5.2 ± 1.3 µM | regression of EAC induced angiogenesis in peritoneum ([10]; first value of 'respectively' (25 mg/kg)): 40% | regression of EAC induced angiogenesis in peritoneum ([10]; second value of 'respectively' (50 mg/kg)): 15% | IC50 (EAC cells [11]; Mus musculus): 6.8 ± 1.4 µM | inhibition at 10 µM (A549 cells [12]; A549, 10 μM): 13% | inhibition at 20 µM (A549 cells [12]; A549, 20 μM): 72.3% | IC50 (MCF-7 cells [13]): 4.5 ± 2 µM | IC50 (MCF-7 cells [14]): 4.6 ± 1.1 µM | decrease of tumor volume, % of inhibition (EAC tumor; EAC mice, 25 mg/kg bw i.p.): 74.35% | decrease of tumor volume, % of inhibition (EAC tumor; EAC mice, 50 mg/kg bw i.p.): 80.2% | adverse effect on normal lymphoid organs (morphology of kidney, liver, spleen) (EAC tumor; EAC mice, 25 and 50 mg/kg): did not show any symptoms of adverse effect | cell density reduction (EAC tumor; EAC mice, 25 and 50 mg/kg, concentration dependent): six fold reduction | body weight of tumor bearing mice (EAC tumor; EAT bearing mice, treated vs control): significant decrease in body weight

N.N.[Cl][Pt][Cl] [Cisplatin, reference compound]
IC50 (PBMC cells [2]): 91.4 ± 1.1 µM | IC50 (PBMC cells [7]): 96.1 ± 0.8 µM | IC50 (EAC cells [8]): 4.9 ± 1.1 µM | IC50 (EAC cells [11]): 4.4 ± 1.3 µM

OO [H2O2, Hydrogen Peroxide, reference compound]
percentage of caspase-3 activation (caspase-3; MCF-7, 0.1 mM, positive control): 91.1%
